Data: the supplement of paper PMC10307832

How the values were obtained:
Experiment in all cases: relative viability (nuclei count vs DMSO), 5 days (fraction); higher = more cells survive
Kobe2602 + Linsitinib = compound: C1=CC(=CC=C1NC(=S)NNC2=C(C=C(C=C2[N+](=O)[O-])C(F)(F)F)[N+](=O)[O-])F [Kobe2602] + C[C@]1(O)C[C@@H](c2nc(-c3ccc4ccc(-c5ccccc5)nc4c3)c3c(N)nccn32)C1 [Linsitinib] (partner 1 µM)
Procedure, shortened: (§1)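 Relative viability equals treated-well nuclei counts divided by vehicle-well nuclei counts. Counts came from 4× images of lung cancer cell lines grown in 1536-well plates for 5 days after pin-tool dosing on the day after seeding. Dosing used one drug alone or a fixed anchor-drug dose plus five library-drug doses (not always all listed) in √10 steps, and values are medians of duplicate plates.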

Kobe2602 + Olaparib = compound: C1=CC(=CC=C1NC(=S)NNC2=C(C=C(C=C2[N+](=O)[O-])C(F)(F)F)[N+](=O)[O-])F [Kobe2602] + O=C(c1cc(Cc2n[nH]c(=O)c3ccccc23)ccc1F)N1CCN(C(=O)C2CC2)CC1 [Olaparib] (partner 8 µM)
Procedure, shortened: as §1

Cabozantinib + Alpelisib = compound: COc1cc2nccc(Oc3ccc(NC(=O)C4(C(=O)Nc5ccc(F)cc5)CC4)cc3)c2cc1OC [Cabozantinib] + Cc1nc(NC(=O)N2CCC[C@H]2C(N)=O)sc1-c1ccnc(C(C)(C)C(F)(F)F)c1 [Alpelisib] (partner 2 µM)
Procedure, shortened: as §1

Cabozantinib + Dasatinib = compound: COc1cc2nccc(Oc3ccc(NC(=O)C4(C(=O)Nc5ccc(F)cc5)CC4)cc3)c2cc1OC [Cabozantinib] + Cc1nc(Nc2ncc(C(=O)Nc3c(C)cccc3Cl)s2)cc(N2CCN(CCO)CC2)n1 [Dasatinib] (partner 0.075 µM)
Procedure, shortened: as §1

| Cell Line | relative viability (Kobe2602 + Linsitinib; first compound 0.2 µM) | relative viability (Kobe2602 + Linsitinib; first compound 0.6325 µM) | relative viability (Kobe2602 + Linsitinib; first compound 2 µM) | relative viability (Kobe2602 + Linsitinib; first compound 6.325 µM) | relative viability (Kobe2602 + Linsitinib; first compound 20 µM) | relative viability (Kobe2602 + Olaparib; first compound 0.2 µM) | relative viability (Kobe2602 + Olaparib; first compound 0.6325 µM) | relative viability (Kobe2602 + Olaparib; first compound 2 µM) | relative viability (Kobe2602 + Olaparib; first compound 6.325 µM) | relative viability (Kobe2602 + Olaparib; first compound 20 µM) | relative viability (Cabozantinib + Alpelisib; first compound 0.02 µM) | relative viability (Cabozantinib + Alpelisib; first compound 0.06325 µM) | relative viability (Cabozantinib + Alpelisib; first compound 0.2 µM) | relative viability (Cabozantinib + Alpelisib; first compound 0.6325 µM) | relative viability (Cabozantinib + Alpelisib; first compound 2 µM) | relative viability (Cabozantinib + Dasatinib; first compound 0.02 µM) | relative viability (Cabozantinib + Dasatinib; first compound 0.06325 µM) | relative viability (Cabozantinib + Dasatinib; first compound 0.2 µM) | relative viability (Cabozantinib + Dasatinib; first compound 0.6325 µM) | relative viability (Cabozantinib + Dasatinib; first compound 2 µM) |
| --- | --- | --- | --- | --- | --- | --- | --- | --- | --- | --- | --- | --- | --- | --- | --- | --- | --- | --- | --- | --- |
| SK-MES-1 | 1 | 1.26 | 1.04 | 1.07 | 1.07 | 0.674 | 0.643 | 0.635 | 0.551 | 0.281 | 1.08 | 0.993 | 0.846 | 0.826 | 0.816 | 0.335 | 0.518 | 0.293 | 0.432 | 0.242 |
| HCC-366 | 0.711 | 0.743 | 0.629 | 0.664 | 0.647 | 0.368 | 0.345 | 0.32 | 0.352 | 0.365 | 0.585 | 0.619 | 0.445 | 0.328 | 0.294 | 0.43 | 0.664 | 0.536 | 0.584 | 0.628 |
| NCI-H3122 | 1.01 | 1.05 | 1.01 | 1.06 | 1.11 | 0.551 | 0.602 | 0.621 | 0.56 | 0.619 | 0.875 | 0.778 | 0.731 | 0.97 | 0.956 | 0.714 | 0.941 | 0.836 | 0.78 | 0.83 |
| COR-L 105 | 0.711 | 0.985 | 0.574 | 0.944 | 0.988 | 0.658 | 0.718 | 0.425 | 0.588 | 0.686 | 0.898 | 1.08 | – | 0.945 | 0.859 | 0.352 | 0.283 | – | 0.314 | 0.314 |
| 201T | 0.968 | 1.04 | 1.05 | 0.955 | 0.941 | 0.815 | 0.859 | 0.869 | 0.866 | 0.826 | 1.03 | 1.05 | 0.981 | 0.99 | 0.958 | 0.385 | 0.549 | 0.573 | 0.534 | 0.545 |
| NCI-H2228 | 0.576 | 0.733 | 0.809 | 0.756 | 0.598 | 0.738 | 0.576 | 0.689 | 0.593 | 0.629 | 0.794 | 0.922 | 0.784 | 0.564 | 0.711 | 0.531 | 0.624 | 0.471 | 0.472 | 0.55 |
| LC-2-ad | 0.849 | 0.833 | 0.774 | 0.867 | 0.865 | 0.693 | 0.683 | 0.708 | 0.736 | 0.682 | 0.869 | 0.976 | 0.834 | 0.659 | 0.45 | – | 0.641 | 0.492 | 0.295 | 0.283 |
| NCI-H2087 | 1.11 | 0.864 | 0.882 | 0.939 | 0.94 | 0.564 | 0.696 | 0.705 | 0.639 | 0.637 | 1.07 | 1.12 | 0.978 | 1.03 | 0.995 | 0.694 | 0.957 | 0.823 | 0.78 | 0.557 |
| LK-2 | 0.618 | 0.614 | 0.415 | 0.643 | 0.567 | 0.619 | 0.766 | 0.875 | 0.596 | 0.796 | – | 1.22 | 1.08 | 1.23 | 0.856 | – | 0.247 | – | 0.341 | 0.46 |
| H3255 | 0.875 | 1.09 | 0.941 | 0.838 | 0.87 | 0.561 | 0.562 | 0.515 | 0.532 | 0.559 | 0.675 | 0.635 | – | 0.779 | 0.644 | 0.382 | 0.513 | – | 0.459 | 0.309 |
| NCI-H2347 | 0.924 | 0.884 | 0.947 | 0.997 | 1.03 | 0.603 | 0.548 | 0.559 | 0.53 | 0.607 | 1.2 | 1.15 | 1.01 | 0.985 | 0.668 | 0.3 | 0.283 | 0.321 | – | 0.296 |
| CAL-12T | 0.707 | 0.821 | 0.705 | 0.916 | 0.709 | 0.697 | 0.685 | 0.678 | 0.707 | 0.784 | 1.23 | 1.27 | 1.19 | 1.16 | 1.18 | 0.324 | 0.341 | 0.354 | 0.327 | 0.221 |
| A-427 | 1.1 | 1.15 | 1.09 | 0.954 | 1.17 | 0.74 | 0.726 | 0.73 | 0.785 | 0.701 | 1.08 | 1.12 | 1.12 | 1.05 | 1.01 | 0.81 | 0.705 | 0.695 | 0.706 | 0.795 |
| HARA | 0.959 | 1.02 | 0.948 | 0.839 | 0.847 | 0.868 | 1.03 | 0.914 | 0.958 | 0.78 | 0.878 | 1.05 | 0.639 | 0.788 | 0.84 | 0.251 | 0.312 | 0.221 | 0.296 | 0.233 |
